Test results published in ChEMBL document CHEMBL4130348, “Structure-activity relationship investigation for benzonaphthyridinone derivatives as novel potent Bruton's tyrosine kinase (BTK) irreversible inhibitors” (Eur J Med Chem, 2017).

Experiments:
[1] = target: Tyrosine-protein kinase Blk (Homo sapiens, UniProt P51451); experiment: Inhibition of recombinant full length His-tagged human BLK expressed in baculovirus expression system using poly (4:1 Glu, Tyr) as substrate preincubated for 1 hr followed by substrate addition measured after 1 hr by ADP-glo assay
[2] = target: T1, Tyrosine-protein kinase JAK3 (Homo sapiens, UniProt P52333); experiment: Inhibition of recombinant GST-tagged human JAK3 expressed in baculovirus expression system using poly (4:1 Glu, Tyr) as substrate preincubated for 1 hr followed by substrate addition measured after 1 hr by ADP-glo assay
T1 sequence (P52333 whole entry): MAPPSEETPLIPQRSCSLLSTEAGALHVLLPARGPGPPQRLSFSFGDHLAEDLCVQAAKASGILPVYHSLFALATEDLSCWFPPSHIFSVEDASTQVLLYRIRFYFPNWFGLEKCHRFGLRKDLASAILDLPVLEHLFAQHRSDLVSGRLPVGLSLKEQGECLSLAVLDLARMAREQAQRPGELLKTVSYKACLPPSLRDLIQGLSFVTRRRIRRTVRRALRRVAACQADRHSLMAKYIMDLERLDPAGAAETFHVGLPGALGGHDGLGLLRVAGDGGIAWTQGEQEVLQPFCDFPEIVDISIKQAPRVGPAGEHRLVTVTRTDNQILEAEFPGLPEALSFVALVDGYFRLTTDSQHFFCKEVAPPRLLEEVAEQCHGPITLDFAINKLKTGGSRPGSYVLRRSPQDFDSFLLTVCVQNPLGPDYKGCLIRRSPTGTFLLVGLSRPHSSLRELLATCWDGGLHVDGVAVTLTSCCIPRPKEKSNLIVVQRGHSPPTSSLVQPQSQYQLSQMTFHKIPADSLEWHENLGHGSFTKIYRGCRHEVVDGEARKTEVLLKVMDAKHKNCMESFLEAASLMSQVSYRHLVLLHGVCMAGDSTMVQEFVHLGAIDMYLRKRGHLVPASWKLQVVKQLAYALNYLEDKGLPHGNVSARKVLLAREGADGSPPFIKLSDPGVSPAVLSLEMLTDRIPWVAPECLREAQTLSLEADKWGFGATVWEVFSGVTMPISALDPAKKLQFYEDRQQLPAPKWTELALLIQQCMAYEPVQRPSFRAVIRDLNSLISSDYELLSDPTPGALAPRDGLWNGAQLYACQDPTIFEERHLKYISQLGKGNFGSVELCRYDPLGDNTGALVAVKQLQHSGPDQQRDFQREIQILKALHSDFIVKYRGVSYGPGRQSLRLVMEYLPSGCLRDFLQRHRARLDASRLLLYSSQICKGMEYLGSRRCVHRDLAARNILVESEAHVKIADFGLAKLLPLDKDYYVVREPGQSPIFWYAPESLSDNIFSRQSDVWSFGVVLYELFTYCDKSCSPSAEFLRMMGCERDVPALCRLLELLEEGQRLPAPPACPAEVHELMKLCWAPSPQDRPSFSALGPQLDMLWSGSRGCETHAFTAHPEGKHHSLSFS

[3] = target: T2, Tyrosine-protein kinase BTK (Homo sapiens, UniProt Q06187); experiment: Inhibition of recombinant full length His-tagged human BTK expressed in baculovirus expression system using poly (4:1 Glu, Tyr) as substrate preincubated for 1 hr followed by substrate addition measured after 1 hr by ADP-glo assay
[4] = target: T2, Tyrosine-protein kinase BTK; experiment: Irreversible inhibition of recombinant full length His-tagged human BTK expressed in baculovirus expression system using poly (4:1 Glu, Tyr) as substrate preincubated for 2 to 60 mins followed by substrate addition measured after 1 hr by ADP-glo assay
[5] = target: T2, Tyrosine-protein kinase BTK; experiment: Irreversible inhibition of recombinant full length His-tagged human BTK expressed in baculovirus expression system using poly (4:1 Glu, Tyr) as substrate assessed as ratio of Kinact to Ki preincubated for 2 to 60 mins followed by substrate addition measured after 1 hr by ADP-glo assay
[6] = Antiproliferative activity against mouse BA/F3 cells after 72 hrs by CellTiter-Glo assay; format: cell-based, BaF3
[7] = target: Epidermal growth factor receptor (Homo sapiens) (UniProt P00533); experiment: Inhibition of TEL-fused EGFR (unknown origin) expressed in mouse BA/F3 cells after 72 hrs by CellTiter-Glo assay; format: cell-based
[8] = test system: Epidermal growth factor receptor (Homo sapiens), P00533 [L858R,T790M]; experiment: Inhibition of TEL-fused EGFR T790M/L858R mutant (unknown origin) expressed in mouse BA/F3 cells after 72 hrs by CellTiter-Glo assay; format: cell-based
[9] = target: Tyrosine-protein kinase JAK1 (Homo sapiens) (UniProt P23458); experiment: Inhibition of TEL-fused JAK1 (unknown origin) expressed in mouse BA/F3 cells after 72 hrs by CellTiter-Glo assay; format: cell-based
[10] = target: Tyrosine-protein kinase JAK2 (Homo sapiens) (UniProt O60674); experiment: Inhibition of TEL-fused JAK2 (unknown origin) expressed in mouse BA/F3 cells after 72 hrs by CellTiter-Glo assay; format: cell-based
HCT-116 = experiment: Antiproliferative activity against human HCT116 cells after 72 hrs by CellTiter-Glo assay; format: functional; conditions: HCT-116, 72 h
A-431 = experiment: Antiproliferative activity against human A431 cells after 72 hrs by CellTiter-Glo assay; format: functional; conditions: A-431, 72 h
NCI-H460 = experiment: Antiproliferative activity against human NCI-H460 cells after 72 hrs by CellTiter-Glo assay; format: functional; conditions: NCI-H460, 72 h
A549 = experiment: Antiproliferative activity against human A549 cells after 72 hrs by CellTiter-Glo assay; format: functional; conditions: A549, 72 h
NCI-H358 = experiment: Antiproliferative activity against human NCI-H358 cells after 72 hrs by CellTiter-Glo assay; format: functional; conditions: NCI-H358, 72 h
NCI-H1975 = experiment: Antiproliferative activity against human NCI-H1975 cells after 72 hrs by CellTiter-Glo assay; format: functional; conditions: NCI-H1975, 72 h
HeLa = experiment: Antiproliferative activity against human HeLa cells after 72 hrs by CellTiter-Glo assay; format: functional
DU-145 = experiment: Antiproliferative activity against human DU145 cells after 72 hrs by CellTiter-Glo assay; format: functional; conditions: DU-145, 72 h
[11] = Antiproliferative activity against human RV1 cells after 72 hrs by CellTiter-Glo assay; format: functional; conditions: RV-1, 72 h
LNCaP C4-2 = experiment: Antiproliferative activity against human C4-2 cells after 72 hrs by CellTiter-Glo assay; format: functional; conditions: LNCaP C4-2, 72 h
SU-DHL-2 = experiment: Antiproliferative activity against human SUDHL2 cells after 72 hrs by CellTiter-Glo assay; format: functional; conditions: SU-DHL-2, 72 h
U2932 = experiment: Antiproliferative activity against human U2932 cells after 72 hrs by CellTiter-Glo assay; format: functional; conditions: U2932, 72 h
Pfeiffer = experiment: Antiproliferative activity against human Pfeiffer cells after 72 hrs by CellTiter-Glo assay; format: functional
NAMALVA = experiment: Antiproliferative activity against human NAMALWA cells after 72 hrs by CellTiter-Glo assay; format: functional
NALM-6 = experiment: Antiproliferative activity against human NALM6 cells after 72 hrs by CellTiter-Glo assay; format: functional; conditions: NALM-6, 72 h
U-937 = experiment: Antiproliferative activity against human U937 cells after 72 hrs by CellTiter-Glo assay; format: functional; conditions: U-937, 72 h
[12] = Antiproliferative activity against human PF138 cells after 72 hrs by CellTiter-Glo assay; format: functional
MOLM-13 = experiment: Antiproliferative activity against human MOLM13 cells after 72 hrs by CellTiter-Glo assay; format: functional; conditions: MOLM-13, 72 h
MOLM-14 = experiment: Antiproliferative activity against human MOLM14 cells after 72 hrs by CellTiter-Glo assay; format: functional; conditions: MOLM-14, 72 h
[13] = Antiproliferative activity against human MOLM16 cells after 72 hrs by CellTiter-Glo assay; format: functional; conditions: MOLM16, 72 h
HEL = experiment: Antiproliferative activity against human HEL cells after 72 hrs by CellTiter-Glo assay; format: functional
NB-4 = experiment: Antiproliferative activity against human NB4 cells after 72 hrs by CellTiter-Glo assay; format: functional; conditions: NB-4, 72 h
HL-60 = experiment: Antiproliferative activity against human HL60 cells after 72 hrs by CellTiter-Glo assay; format: functional; conditions: HL-60, 72 h
CMK = experiment: Antiproliferative activity against human CMK cells after 72 hrs by CellTiter-Glo assay; format: functional
NOMO-1 = experiment: Antiproliferative activity against human NOMO1 cells after 72 hrs by CellTiter-Glo assay; format: functional; conditions: NOMO-1, 72 h
OCI-AML-3 = experiment: Antiproliferative activity against human OCI-AML3 cells after 72 hrs by CellTiter-Glo assay; format: functional; conditions: OCI-AML-3, 72 h
OCI-AML2 = experiment: Antiproliferative activity against human OCI-AML2 cells after 72 hrs by CellTiter-Glo assay; format: functional; conditions: OCI-AML2, 72 h
K562 = experiment: Antiproliferative activity against human K562 cells after 72 hrs by CellTiter-Glo assay; format: functional; conditions: K562, 72 h
Rec1 = experiment: Antiproliferative activity against human Rec1 cells after 72 hrs by CellTiter-Glo assay; format: functional; conditions: Rec1, 72 h
JVM-2 = experiment: Antiproliferative activity against human JVM2 cells after 72 hrs by CellTiter-Glo assay; format: functional; conditions: JVM-2, 72 h
Z-138 = experiment: Antiproliferative activity against human Z138 cells after 72 hrs by CellTiter-Glo assay; format: functional; conditions: Z-138, 72 h

T2 sequence (Q06187 whole entry): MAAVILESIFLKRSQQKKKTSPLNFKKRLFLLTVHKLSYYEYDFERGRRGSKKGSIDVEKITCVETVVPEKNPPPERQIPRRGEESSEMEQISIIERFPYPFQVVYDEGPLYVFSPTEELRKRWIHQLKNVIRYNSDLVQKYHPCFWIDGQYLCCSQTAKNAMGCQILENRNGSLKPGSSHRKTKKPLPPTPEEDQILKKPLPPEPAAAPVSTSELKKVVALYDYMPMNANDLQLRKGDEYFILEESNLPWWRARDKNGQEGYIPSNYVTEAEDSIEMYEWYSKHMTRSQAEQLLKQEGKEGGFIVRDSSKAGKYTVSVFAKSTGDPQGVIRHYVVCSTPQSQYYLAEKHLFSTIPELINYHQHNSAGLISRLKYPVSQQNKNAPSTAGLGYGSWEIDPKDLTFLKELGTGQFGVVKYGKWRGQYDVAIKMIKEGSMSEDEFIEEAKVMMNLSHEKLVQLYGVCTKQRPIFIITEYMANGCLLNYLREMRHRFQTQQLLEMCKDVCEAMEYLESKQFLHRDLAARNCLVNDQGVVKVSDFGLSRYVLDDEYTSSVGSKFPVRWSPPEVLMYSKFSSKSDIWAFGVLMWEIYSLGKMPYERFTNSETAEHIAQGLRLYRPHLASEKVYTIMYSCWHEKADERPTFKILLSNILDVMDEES
Sequence of Tyrosine-protein kinase Blk (P51451 whole entry): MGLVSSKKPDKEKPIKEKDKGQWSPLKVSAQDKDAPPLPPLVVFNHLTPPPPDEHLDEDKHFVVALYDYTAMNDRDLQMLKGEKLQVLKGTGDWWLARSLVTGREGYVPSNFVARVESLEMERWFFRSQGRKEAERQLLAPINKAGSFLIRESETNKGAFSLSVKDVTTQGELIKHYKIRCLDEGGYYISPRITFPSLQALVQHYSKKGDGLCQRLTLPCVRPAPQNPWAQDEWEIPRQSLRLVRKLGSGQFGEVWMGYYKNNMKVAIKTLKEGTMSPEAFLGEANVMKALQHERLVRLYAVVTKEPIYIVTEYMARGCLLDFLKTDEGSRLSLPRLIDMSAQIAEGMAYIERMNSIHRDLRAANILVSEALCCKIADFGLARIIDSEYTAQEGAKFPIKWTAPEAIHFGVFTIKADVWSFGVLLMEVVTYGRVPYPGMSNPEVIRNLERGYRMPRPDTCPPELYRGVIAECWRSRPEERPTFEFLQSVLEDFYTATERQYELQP
Sequence of Tyrosine-protein kinase JAK1 (Homo sapiens) (P23458 whole entry, the tested form may be a part): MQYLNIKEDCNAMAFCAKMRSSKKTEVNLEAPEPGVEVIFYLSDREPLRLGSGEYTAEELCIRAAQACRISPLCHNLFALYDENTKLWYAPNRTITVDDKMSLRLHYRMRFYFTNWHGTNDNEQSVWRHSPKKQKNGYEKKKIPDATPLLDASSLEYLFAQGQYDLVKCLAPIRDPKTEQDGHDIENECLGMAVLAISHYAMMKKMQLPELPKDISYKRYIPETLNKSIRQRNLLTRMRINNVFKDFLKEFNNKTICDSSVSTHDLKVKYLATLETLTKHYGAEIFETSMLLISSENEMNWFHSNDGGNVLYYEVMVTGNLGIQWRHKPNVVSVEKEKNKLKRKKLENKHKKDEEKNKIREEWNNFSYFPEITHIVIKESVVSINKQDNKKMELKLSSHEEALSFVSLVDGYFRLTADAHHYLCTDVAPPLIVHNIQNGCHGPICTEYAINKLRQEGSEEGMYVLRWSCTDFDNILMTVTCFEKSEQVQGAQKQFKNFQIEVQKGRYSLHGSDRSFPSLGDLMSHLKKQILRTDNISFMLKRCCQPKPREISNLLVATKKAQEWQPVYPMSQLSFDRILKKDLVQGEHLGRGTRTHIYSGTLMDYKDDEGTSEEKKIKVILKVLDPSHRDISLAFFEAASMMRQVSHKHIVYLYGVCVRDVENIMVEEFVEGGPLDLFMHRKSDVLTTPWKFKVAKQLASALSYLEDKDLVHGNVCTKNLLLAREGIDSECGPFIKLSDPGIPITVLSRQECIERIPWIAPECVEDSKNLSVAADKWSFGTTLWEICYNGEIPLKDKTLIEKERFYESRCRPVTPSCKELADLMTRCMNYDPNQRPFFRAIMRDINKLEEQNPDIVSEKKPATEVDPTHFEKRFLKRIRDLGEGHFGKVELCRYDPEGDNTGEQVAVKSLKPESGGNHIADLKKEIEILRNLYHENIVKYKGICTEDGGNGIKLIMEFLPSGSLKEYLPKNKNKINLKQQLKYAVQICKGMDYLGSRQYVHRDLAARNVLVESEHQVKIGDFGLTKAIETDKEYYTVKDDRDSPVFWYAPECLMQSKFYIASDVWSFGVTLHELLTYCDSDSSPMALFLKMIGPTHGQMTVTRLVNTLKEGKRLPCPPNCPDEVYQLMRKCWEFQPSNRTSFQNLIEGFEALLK
Sequence of Tyrosine-protein kinase JAK2 (Homo sapiens) (O60674 whole entry, the tested form may be a part): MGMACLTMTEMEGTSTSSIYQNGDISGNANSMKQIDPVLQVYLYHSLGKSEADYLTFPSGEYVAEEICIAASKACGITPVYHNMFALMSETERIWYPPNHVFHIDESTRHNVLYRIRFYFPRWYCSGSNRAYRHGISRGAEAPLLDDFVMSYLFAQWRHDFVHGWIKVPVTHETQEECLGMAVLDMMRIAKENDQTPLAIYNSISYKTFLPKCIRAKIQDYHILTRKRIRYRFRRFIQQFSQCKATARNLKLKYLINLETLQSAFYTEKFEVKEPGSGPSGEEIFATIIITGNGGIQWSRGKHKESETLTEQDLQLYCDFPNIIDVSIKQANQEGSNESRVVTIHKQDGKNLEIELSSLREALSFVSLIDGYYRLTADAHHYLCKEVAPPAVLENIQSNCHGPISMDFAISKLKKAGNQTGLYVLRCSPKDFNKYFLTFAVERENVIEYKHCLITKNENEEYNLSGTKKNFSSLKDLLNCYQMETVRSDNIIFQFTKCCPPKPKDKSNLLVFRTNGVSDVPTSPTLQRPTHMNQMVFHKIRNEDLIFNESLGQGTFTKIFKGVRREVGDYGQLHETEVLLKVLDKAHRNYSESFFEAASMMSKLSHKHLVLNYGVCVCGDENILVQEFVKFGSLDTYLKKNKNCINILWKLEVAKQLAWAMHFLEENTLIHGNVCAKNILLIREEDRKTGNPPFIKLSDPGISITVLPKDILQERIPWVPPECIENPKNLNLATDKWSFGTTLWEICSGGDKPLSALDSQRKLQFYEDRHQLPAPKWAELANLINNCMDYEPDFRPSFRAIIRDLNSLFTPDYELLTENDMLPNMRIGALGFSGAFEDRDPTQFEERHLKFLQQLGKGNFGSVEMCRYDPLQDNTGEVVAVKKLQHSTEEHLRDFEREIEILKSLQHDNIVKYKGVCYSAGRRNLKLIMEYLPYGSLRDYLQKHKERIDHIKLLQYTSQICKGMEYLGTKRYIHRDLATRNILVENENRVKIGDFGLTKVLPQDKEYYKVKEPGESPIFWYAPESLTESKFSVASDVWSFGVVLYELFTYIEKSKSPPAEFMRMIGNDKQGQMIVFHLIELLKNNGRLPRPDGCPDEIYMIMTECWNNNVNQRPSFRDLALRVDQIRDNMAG
Sequence of Epidermal growth factor receptor (Homo sapiens) (P00533 whole entry, the tested form may be a part): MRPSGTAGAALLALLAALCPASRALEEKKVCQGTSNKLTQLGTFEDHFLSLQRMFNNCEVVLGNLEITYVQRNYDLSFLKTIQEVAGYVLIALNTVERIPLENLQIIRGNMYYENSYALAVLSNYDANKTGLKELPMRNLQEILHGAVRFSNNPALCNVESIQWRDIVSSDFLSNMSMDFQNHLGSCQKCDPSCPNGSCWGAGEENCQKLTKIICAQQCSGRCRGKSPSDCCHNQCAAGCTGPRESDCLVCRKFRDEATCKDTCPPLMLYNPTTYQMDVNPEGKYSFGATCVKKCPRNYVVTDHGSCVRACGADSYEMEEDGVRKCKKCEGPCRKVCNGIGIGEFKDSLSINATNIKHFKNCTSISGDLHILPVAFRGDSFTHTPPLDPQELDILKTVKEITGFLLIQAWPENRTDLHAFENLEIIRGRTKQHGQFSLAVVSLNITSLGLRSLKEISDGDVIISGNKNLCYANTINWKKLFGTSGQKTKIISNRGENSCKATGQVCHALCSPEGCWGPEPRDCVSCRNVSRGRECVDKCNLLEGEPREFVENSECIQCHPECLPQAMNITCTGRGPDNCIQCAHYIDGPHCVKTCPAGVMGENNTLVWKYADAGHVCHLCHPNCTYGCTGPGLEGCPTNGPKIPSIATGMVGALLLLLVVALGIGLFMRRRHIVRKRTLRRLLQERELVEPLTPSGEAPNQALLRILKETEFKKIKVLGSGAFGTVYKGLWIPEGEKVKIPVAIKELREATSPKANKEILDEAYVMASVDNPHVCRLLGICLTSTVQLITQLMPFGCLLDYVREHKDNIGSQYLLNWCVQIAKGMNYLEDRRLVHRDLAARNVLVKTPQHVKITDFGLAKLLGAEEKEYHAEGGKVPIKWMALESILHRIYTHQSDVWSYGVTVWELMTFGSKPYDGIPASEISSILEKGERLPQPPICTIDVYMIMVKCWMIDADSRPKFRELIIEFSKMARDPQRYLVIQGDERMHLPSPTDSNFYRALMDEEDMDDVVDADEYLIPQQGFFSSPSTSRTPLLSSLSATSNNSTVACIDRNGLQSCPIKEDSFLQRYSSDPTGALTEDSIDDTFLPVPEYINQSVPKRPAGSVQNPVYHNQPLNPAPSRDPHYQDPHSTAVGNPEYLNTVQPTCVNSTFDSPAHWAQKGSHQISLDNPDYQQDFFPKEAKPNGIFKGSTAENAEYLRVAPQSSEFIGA

## C=CC(=O)Nc1cccc(-n2c(=O)ccc3cnc4ccc(-c5cn[nH]c5)cc4c32)c1
[1]
  IC50: 293 nM
[2]
  IC50: 224 nM

## C=CC(=O)N1CCc2ccc(-n3c(=O)ccc4cnc5ccc(-c6ccc(S(=O)(=O)NC(C)(C)C)cc6)cc5c43)cc21
[1]
  IC50: 83.6 nM
[2]
  IC50: > 10000 nM

## C=CC(=O)Nc1cccc(-n2c(=O)ccc3cnc4ccc(-c5ccc(N)nc5)cc4c32)c1
[1]
  IC50: 336 nM
[2]
  IC50: 654 nM

## C=CC(=O)Nc1cc(-n2c(=O)ccc3cnc4ccc(-c5ccc(NC(=O)NC)cc5)cc4c32)ccc1C
[3]
  IC50: 79.1 nM
[1]
  IC50: 1130 nM
[2]
  IC50: 218 nM

## C=CC(=O)Nc1cc(-n2c(=O)ccc3cnc4ccc(-c5cn[nH]c5)cc4c32)ccc1C
[4]
  Ki: 2 nM
  Kinact: 0.14 min⁻¹
[5]
  Ratio: 1.17 µM⁻¹ s⁻¹

## C=CC(=O)Nc1cc(-n2c(=O)ccc3cnc4ccc(-c5ccsc5)cc4c32)ccc1C
[1]
  IC50: 342 nM
[2]
  IC50: 38.6 nM

## C=CC(=O)Nc1cc(-n2c(=O)ccc3cnc4ccc(-c5ccccc5)cc4c32)ccc1C
[2]
  IC50: 25.3 nM

## C=CC(=O)Nc1cc(-n2c(=O)ccc3cnc4ccc(-c5cnc6ccccc6c5)cc4c32)ccc1C
[1]
  IC50: 295 nM
[2]
  IC50: 983 nM

## C=CC(=O)Nc1cc(-n2c(=O)ccc3cnc4ccc(-c5ccoc5)cc4c32)ccc1C
[1]
  IC50: 2090 nM
[2]
  IC50: 17.4 nM

## C=CC(=O)Nc1cc(-n2c(=O)ccc3cnc4ccc(-c5cnn(C)c5)cc4c32)ccc1C
[1]
  IC50: 339 nM
[2]
  IC50: 343 nM

## C=CC(=O)Nc1cc(-n2c(=O)ccc3cnc4ccc(-c5ccc(N)nc5)cc4c32)ccc1C
[1]
  IC50: 177 nM
[2]
  IC50: 177 nM

## C=CC(=O)Nc1cc(-n2c(=O)ccc3cnc4ccc(/C=C/c5ccccc5)cc4c32)ccc1C
[1]
  IC50: 607 nM
[2]
  IC50: 5580 nM

## C=CC(=O)Nc1cc(-n2c(=O)ccc3cnc4ccc(-c5ccc(COc6cccc(C(F)(F)F)c6)cc5)cc4c32)ccc1C
[1]
  IC50: 2060 nM
[2]
  IC50: 650 nM

## C=CC(=O)N1CCc2ccc(-n3c(=O)ccc4cnc5ccc(-c6ccc(N7CCN(C)CC7)cc6)cc5c43)cc21
[1]
  IC50: > 10000 nM
[2]
  IC50: 1560 nM

## C=CC(=O)N1CCC[C@@H](n2nc(-c3ccc(Oc4ccccc4)cc3)c3c(N)ncnc32)C1 [IBRUTINIB]
[6]
  GI50 at 72 h: > 10000 nM
[7]
  GI50: > 10000 nM
[8]
  GI50: 2760 nM
[9]
  GI50: 8930 nM
[10]
  GI50: 9020 nM
HCT-116
  GI50: > 10000 nM
A-431
  GI50: > 10000 nM
NCI-H460
  GI50: > 10000 nM
A549
  GI50: > 10000 nM
NCI-H358
  GI50: > 10000 nM
NCI-H1975
  GI50: 1200 nM
HeLa
  GI50: > 10000 nM
DU-145
  GI50: > 10000 nM
[11]
  GI50: > 10000 nM
LNCaP C4-2
  GI50: > 10000 nM
SU-DHL-2
  GI50: 2200 nM
U2932
  GI50: 4000 nM
Pfeiffer
  GI50: 8400 nM
NAMALVA
  GI50: 6000 nM
NALM-6
  GI50: > 10000 nM
U-937
  GI50: 8500 nM
[12]
  GI50: 8200 nM
MOLM-13
  GI50: 1300 nM
MOLM-14
  GI50: 1800 nM
[13]
  GI50: 4400 nM
HEL
  GI50: 4000 nM
NB-4
  GI50: 7500 nM
HL-60
  GI50: 3500 nM
CMK
  GI50: > 10000 nM
NOMO-1
  GI50: > 10000 nM
OCI-AML-3
  GI50: > 10000 nM
OCI-AML2
  GI50: > 10000 nM
K562
  GI50: > 10000 nM
Rec1
  GI50: > 10000 nM
JVM-2
  GI50: > 10000 nM
Z-138
  GI50: > 10000 nM

## C=CC(=O)N1CCc2ccc(-n3c(=O)ccc4cnc5ccc(-c6cnc7ccccc7c6)cc5c43)cc21
[3]
  IC50: 7.15 nM
[1]
  IC50: 191 nM
[2]
  IC50: 983 nM

## C=CC(=O)Nc1cc(-n2c(=O)ccc3cnc4ccc(-c5ccc6c(c5)OCCO6)cc4c32)ccc1C
[1]
  IC50: 160 nM
[2]
  IC50: 192 nM
